Experimental data reported in patent US9180135B2, “Miliacin and sphingolipids and/or phospholipids composition for hair and scalp care” (HITEX, priority 2013, dated 2015).

System: hair bulb root cells (keratinocytes)
Experiment: In vitro test: cellular proliferation of root cells (keratinocytes) in cultured human scalp fragments, anti-Ki67 immunohistochemistry
Format: cell-based
Conditions: cultures stopped on D4, 1.7 μg/ml of miliacin, Ki67-positive cells
Method: This test consists of studying the cellular proliferation of root cells (keratinocytes). Indeed, as mentioned above, cellular proliferation at the hair bulb matrix promotes hair growth.
Composition A: 1.7 μg/ml of miliacin
Composition B: 150 μg/ml of the composition disclosed herein, Keranat, comprising: • 1.7 μg/ml of miliacin (1.1% of mixture) • 0.30 μg/ml of glycosylceramides and ceramides (0.21% of mixture) • 1.2 μg/ml of phospholipids (0.8% of mixture) Methodology
Human scalp fragments were obtained in plastic surgery from twelve different donors from the occipital area prior to hair implantation. They were deposited in inserts, in turn placed in culture wells. Culture medium specifically suitable for maintaining survival conditions (antibiotic, foetal calf serum (FCS)) was added to the bottom of the wells, running a passage by slow diffusion between the two compartments via a 3 μm thick porous membrane.
The composition is added in dilution at a predetermined dose, in the culture medium to promote contact with the hair bulbs. […]
The root proliferation was analysed by means of immunohistochemistry using an anti-Ki67 antibody marker of phase M, S, G1 and G2 cells in the cell cycle (mouse monoclonal antibody, MIB1 clone, diluted to 1:300, marketed by Dako). […]
On each bulb, the number of positive cells is counted with respect to a total of approximately 100 cells. […]

miliacin [Composition A]
Results (% of proliferating cells compared to control): +92%
Results (% of proliferating cells compared to control) (listed as millet oil alone): 92%
